Results reported in ChEMBL document CHEMBL3217421, “Truncated militarinone fragments identified by total chemical synthesis induce neurite outgrowth” (Medchemcomm, 2013).
Active and inactive are the calls of the source. No cut-off for these calls is given here.

What was measured:
Assay type in all cases: functional, cell-based
[1] = system: PC-12; assay: Neuritogenic activity in rat PC12 cells assessed as induction of neurite outgrowth at 2 uM after 3 days using Giemsa staining by microscopic analysis
[2] = system: PC-12; assay: Neuritogenic activity in rat PC12 cells assessed as induction of neurite outgrowth at 1 uM after 3 days using Giemsa staining by microscopic analysis
[3] = system: PC-12; assay: Neuritogenic activity in rat PC12 cells assessed as induction of neurite outgrowth at 500 nM after 3 days using Giemsa staining by microscopic analysis
[4] = system: PC-12; assay: Neuritogenic activity in rat PC12 cells assessed as induction of neurite outgrowth at 20 uM after 3 days using Giemsa staining by microscopic analysis
[5] = system: PC-12; assay: Neuritogenic activity in rat PC12 cells assessed as induction of neurite outgrowth at 20 uM after 3 days using Giemsa staining by microscopic analysis in presence of ERK1/2 inhibitor PD98059
[6] = system: PC-12; assay: Neuritogenic activity in rat PC12 cells assessed as induction of neurite outgrowth at 40 uM after 3 days using Giemsa staining by microscopic analysis

SMILES | Activity [4] | Activity [6] | other results
CCOC(=O)c1c(OC)c(-c2ccc(O)c(OC)c2)c[nH]c1=O | Active | – | Activity [1]: Active; Activity [2]: Active; Activity [3]: inactive; Activity [5]: inactive
CCOC(=O)c1c(OC)c(-c2cccnc2)c[nH]c1=O | – | inactive | –
CCOC(=O)c1c(OC)c(-c2ccncc2)c[nH]c1=O | – | inactive | –
COc1cc(-c2cccnc2)ccc1O | inactive | – | –
CCOC(=O)c1c(OC)c(-c2ccc(NC(=O)OC(C)(C)C)cc2)c[nH]c1=O | – | inactive | –
CCOC(=O)c1c(OC)c(-c2ccc(OC)cc2)cn(C)c1=O | inactive | – | –
CCOC(=O)c1c(OC)c(-c2ccc(C(C)(C)C)cc2)c[nH]c1=O | – | inactive | –
CCOC(=O)c1c(OC)c(-c2ccc(OC)cc2)c[nH]c1=O | inactive | – | –
CCOC(=O)c1c(OC)c(-c2ccccc2)c[nH]c1=O | – | inactive | –
CCOC(=O)c1c(O)c(-c2ccc(O)cc2)c[nH]c1=O | Active | – | –
CCOC(=O)c1c(OC)c(-c2ccc(F)cc2)c[nH]c1=O | – | inactive | –
CCOC(=O)c1c(OC)c(-c2ccc(O)cc2)cn(C)c1=O | Active | – | –
CCOC(=O)c1c(OC)c(-c2ccc(O)cc2)c[nH]c1=O | Active | – | –
CCOC(=O)c1c(OC)c(-c2ccc(N)cc2)c[nH]c1=O | – | inactive | –
